Source: patent US20120171123A1, “USES AND COMPOSITIONS FOR TREATMENT OF RHEUMATOID ARTHRITIS” (priority 2006, published 2012)
“And” between values parts separate entries of the source, which are not always exact repeats. Equal entries are not always repeated.

Tests used:
[1] = tested on: MTX-naïve adult patients with active, early RA (<3 years); assay: Study J: individual clinical remission criteria (TJC=0, SJC=0, HAQ=0, morning stiffness=0); format: in vivo, human
Experimental: A total of 799 patients were enrolled. Baseline demographics and clinical characteristics of the patients enrolled in this study are described in Example 7. Baseline demographics and clinical characteristics were similar among the 3 arms, i.e., ada+mtx, ada alone, or mtx alone. […] After 1 and 2 years of therapy, the percentages of patients with ACR90 responses, TJC=0, SJC=0, HAQ=0, morning stiffness=0 minutes, and normal CRP were determined. Data are from the intention-to-treat (ITT) population with imputation used for missing values. Results were compared with the percentages of patients who achieved DAS28<2.6 or a Major Clinical Response (MCR).

[2] = tested on: patients with long-standing RA who had inadequate responses to MTX; assay: Study 1 (adalimumab + MTX vs placebo + MTX, 12-month RCT plus OLE): radiographic progression (TSS, JE, JSN); format: in vivo, human
Experimental: The study design included a 12 month, double blind, randomized, placebo-controlled trial.
(§1) Patients were grouped into three cohorts based on baseline CRP concentrations: low (<1 mg/dL); intermediate (1-4 mg/dL); and high (>4 mg/dL). Analyses were further conducted in two categories of patients according to their change in CRP concentrations at Week 12: those with a ≧20% decrease in CRP from baseline; or those with a <20% decrease in CRP from baseline. The following efficacy and radiographic measures were analyzed at Week 52 in the three baseline CRP categories and in the two Week 12 change in CRP categories: DAS28, ACR 20/50/70, Health assessment questionnaire (HAQ), and Total Sharp score (TSS).
(§2) Two readers assessed X-rays performed at baseline (start of RCT), 1 year (end of RCT), and 3 years (post 2 years OLE). Changes from baseline in Total Sharp Score (TSS), Joint Erosions (JE), and Joint Space Narrowing (JSN) were calculated. ACR 20, 50, and 70 response rates, as well as TJC and SJC, were also measured.

[3] = tested on: patients with long-standing RA who had inadequate responses to MTX; assay: Study 1: ACR20/50/70 response; format: in vivo, human
Experimental: as §1, §2

[4] = tested on: MTX-naïve adult patients with early RA (<3 years); assay: Study J: FACIT-F fatigue; format: in vivo, human; settings: for FACIT-F mean change from baseline: LOCF
Text: The Health Assessment Questionnaire Disability Index (HAQ DI) is a disease-specific tool that measures patient-reported physical function in 8 categories corresponding to normal activities in daily living. Fatigue is an important yet still often overlooked systemic symptom of RA. The Functional Assessment of Chronic Illness Therapy-Fatigue (FACIT-F) tool, measured by a 13-item, validated scale, assesses the impact of a disease and its therapy on fatigue.
Study J is described in detail in the above examples. The Health Assessment Questionnaire Disability Index (HAQ DI) and Functional Assessment of Chronic Illness Therapy-Fatigue (FACIT-F) were assessed at baseline, and following 12, 26, 42, 52, 76, and 104 weeks of therapy. Changes in scores were computed by subtracting the baseline from post-treatment score for each patient; mean changes were reported for each treatment group. The HAQ DI is assessed on a scale of 0-3, with higher numbers indicating greater disability. The minimum clinically important difference (MCID) is defined as changes ≧0.22 (Goldsmith C H, et al. J Rheumatol 1993; 20-561-5). The FACIT-F is assessed on a scale of 0-52, with higher scores indicating less fatigue. Changes of ≧4 are considered clinically meaningful (Cella D, et al. J Pain Symptom Manage 2002:24:547-61).

[5] = tested on: patients with long-standing RA; assay: Study 4: CRP; format: in vivo, human
Text: Percentage change of mean clinical improvement from baseline us describe in Table 15 below.

[6] = tested on: patients with long-standing RA; assay: Study I open-label extension: DAS28 and clinical remission; format: in vivo, human; settings: for patients in clinical remission (DAS28<2.6) / mean change from baseline in DAS28: last visit
Experimental: 217 patients who completed the blinded period and participated in the extension trial for a minimum of 6 months were allowed to adjust MTX and/or corticosteroid dosages at the discretion of the principal investigators. Dose tapering was conducted according to standard medical practice with respect to controlling disease activity
Demographic data, age, gender, disease duration, rheumatoid factor and changes in TJC, SJC, CRP, DAS28, HAQ and ACR responses were analysed. Baseline demographics and disease characteristics as well as efficacy measures at last visit (ACR 20/50/70, DAS28, HAQ) were compared between the groups. All patients, including those who discontinued from the trial, were evaluated
Patients were eligible to enroll in Study I if they met ACR criteria for diagnosis of RA. […] Efficacy outcomes were assessed at pre-specified intervals as observed data. Treatment time was calculated beginning with the first subcutaneous injection of adalimumab at any dose, excluding time on placebo. Improvements in signs and symptoms of RA were evaluated for ACR20, ACR50, and ACR70 criteria, 28-joint count Disease Activity Score (DAS28) using the CRP-based formula, and Health Assessment Questionnaire (HAQ). Patients with changes in dosage of MTX or corticosteroids were evaluated for at least 6 months; these patients were eligible for the extension study for at least 6 months and were eligible for discretionary dose tapering. Patients were monitored for adverse events (AEs) during the entire length of the study, from signed informed consent through last visit.

[7] = tested on: patients with long-standing RA; settings: in vivo
[8] = week 52, baseline CRP 1-4 mg/dL
[9] = 3 years, initially randomized to 40 mg eow

CN(Cc1cnc2nc(N)nc(N)c2n1)c1ccc(C(=O)N[C@@H](CCC(=O)O)C(=O)O)cc1 [mtx alone, methotrexate]
HAQ = 0 ([1]; 1 year): 19 % patients
Morning Stiffness = 0 ([1]; 1 year): 31 % patients
SJC = 0 ([1]; 1 year): 17 % patients
TJC = 0 ([1]; 1 year): 14 % patients
AM (morning) stiffness = 0 ([1]; 2 years): 30 % of patients
HAQ = 0 ([1]; 2 years): 19 % of patients
SJC = 0 ([1]; 2 years): 19 % of patients
TJC = 0 ([1]; 2 years): 21 % of patients
Erosions mean change [2, 8]: 1.7
TSS mean change ([2]; week 52, baseline CRP 1-4 mg/dL, listed as MTX): 3.0
TSS mean change ([2]; week 52, baseline CRP 1-4 mg/dL, listed as Mtx): 3.25 (n = 54)
Erosions mean change ([2]; week 52, baseline CRP <1 mg/dL): 1.5
TSS mean change ([2]; week 52, baseline CRP <1 mg/dL, listed as MTX): 2.1
TSS mean change ([2]; week 52, baseline CRP <1 mg/dL, listed as Mtx): 1.8 (n = 71)
Erosions mean change ([2]; week 52, baseline CRP >4 mg/dL): 2.1
TSS mean change ([2]; week 52, baseline CRP >4 mg/dL, listed as MTX): 4.5
TSS mean change ([2]; week 52, baseline CRP >4 mg/dL, listed as Mtx): 4.23 (n = 15)
ACR20 [3, 8]: 36 % responders
ACR50 [3, 8]: 18 % responders
ACR70 [3, 8]: 9 % responders
ACR20 ([3]; week 52, baseline CRP <1 mg/dL): 30 % responders
ACR50 ([3]; week 52, baseline CRP <1 mg/dL): 13 % responders
ACR70 ([3]; week 52, baseline CRP <1 mg/dL): 6 % responders
ACR20 ([3]; week 52, baseline CRP >4 mg/dL): 47 % responders
ACR50 ([3]; week 52, baseline CRP >4 mg/dL): 0 % responders
ACR70 ([3]; week 52, baseline CRP >4 mg/dL): 0 % responders
FACIT-F mean score ([4]; Baseline): 29.0
FACIT-F mean change from baseline ([4]; ΔWeek 12): 7.8
FACIT-F mean change from baseline ([4]; ΔWeek 26): 9.5
FACIT-F mean change from baseline ([4]; ΔWeek 42): 9.3
FACIT-F mean change from baseline ([4]; ΔWeek 52): 9.0
FACIT-F mean change from baseline ([4]; ΔWeek 76): 8.5
FACIT-F mean change from baseline ([4]; ΔWeek 104): 8.8

adalimumab: human anti-TNF mAb (HUMIRA, Abbott Laboratories), described in U.S. Pat. No. 6,090,382 as D2E7
HAQ = 0 ([1]; 1 year): 17 % patients
Morning Stiffness = 0 ([1]; 1 year): 32 % patients
SJC = 0 ([1]; 1 year): 16 % patients
TJC = 0 ([1]; 1 year): 18 % patients
AM (morning) stiffness = 0 ([1]; 2 years): 30 % of patients
HAQ = 0 ([1]; 2 years): 19 % of patients
SJC = 0 ([1]; 2 years): 19 % of patients
TJC = 0 ([1]; 2 years): 15 % of patients
patients with radiographic improvement (change <−0.5 units), total sharp score ([2]; 3 years): 28%
patients with radiographic improvement, joint erosion score ([2]; 3 years): 29%
patients with radiographic improvement, joint space narrowing score ([2]; 3 years): 20%
patients with no radiographic progression, joint erosion score [2, 9]: 71%
patients with no radiographic progression, joint space narrowing score [2, 9]: 73%
patients with no radiographic progression, total sharp score [2, 9]: 62%
ACR20 ([3]; month 12): 69%
ACR50 ([3]; month 12): 48%
ACR70 ([3]; month 12): 26%
ACR20 ([3]; month 24): 63%
ACR50 ([3]; month 24): 43%
ACR70 ([3]; month 24): 28%
ACR20 ([3]; month 36): 58%
ACR50 ([3]; month 36): 42%
ACR70 ([3]; month 36): 24% and 23%
CRP, % change of mean clinical improvement from baseline ([5]; 6 months): 14%
CRP, % change of mean clinical improvement from baseline ([5]; 12 months): 33%
CRP, % change of mean clinical improvement from baseline ([5]; 24 months): 29%
CRP, % change of mean clinical improvement from baseline ([5]; 36 months): 28%
CRP, % change of mean clinical improvement from baseline ([5]; 48 months): 37%
patients with DAS28<2.6 ([6]; 5 years): 52%
patients in clinical remission (DAS28<2.6) ([6]; mtx and steroid decrease): 24%
mean change from baseline in DAS28 ([6]; mtx decrease): −2.7
patients in clinical remission (DAS28<2.6) ([6]; mtx decrease): 7.2%
mean change from baseline in DAS28 ([6]; mtx increase): −1.7
patients in clinical remission (DAS28<2.6) ([6]; mtx increase): 6.7%
mean change from baseline in DAS28 ([6]; mtx no change): −2.5
patients in clinical remission (DAS28<2.6) ([6]; mtx no change): 15.5%
mean change from baseline in DAS28 ([6]; mtx+steroid decrease): −3.0
mean change from baseline in DAS28 ([6]; steroid decrease): −2.9
patients in clinical remission (DAS28<2.6) ([6]; steroid decrease): 21.6%
mean change from baseline in DAS28 ([6]; steroid no change): −2.5
patients in clinical remission (DAS28<2.6) ([6]; steroid no change): 17.2%
withdrawals for adverse events [7]: 15%
